From the supplement of paper PMC11451515

How the values were obtained:
Test in all cases: AUC of viability dose-response curve (% viability x log10 dose units); higher = less sensitive
Settings in all cases: 48 h
[1] = system: NOMO1
Method in brief: (§1)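 Leukemia cells adapted to each medium were seeded in 1536-well plates (500 or 1000 cells/well). They were dosed with library compounds in DMSO at 11 threefold doses, 47 μM to 0.79 nM, for 48 h at 37°C. CellTiter-Glo One luminescence was normalised per plate to DMSO and cell-free wells. Area under the curve was integrated by trapezoidal rule over log10 doses on a four-parameter log-logistic fit; curves exceeding full viability were scaled and curves failing quality control removed.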

[2] = system: P12-Ichikawa
Method in brief: as §1

[3] = system: SEM cells
Method in brief: as §1

[4] = RPMI 5 mM glucose + 10% dialyzed FBS

SMILES	AUC of viability dose-response curve ([1]; HPLM + 10% dialyzed FBS)	AUC of viability dose-response curve ([1]; RPMI 5 mM glucose + 10% FBS)	AUC of viability dose-response curve [1, 4]	AUC of viability dose-response curve ([2]; HPLM + 10% dialyzed FBS)	AUC of viability dose-response curve ([2]; RPMI 5 mM glucose + 10% FBS)	AUC of viability dose-response curve [2, 4]	AUC of viability dose-response curve ([3]; HPLM + 10% dialyzed FBS)	AUC of viability dose-response curve ([3]; RPMI 5 mM glucose + 10% FBS)	AUC of viability dose-response curve [3, 4]
CC(C)(C)[C@H](NC(=O)c1ccc(N)c(Cl)c1)C(=O)N1CCC[C@H]1C(=O)N[C@H](C#N)CC(=O)O	359	343	354	377	387	419	429	470	451
CC(C)OC1=CC=C2C(=C1)O\C=C(/C2=O)C3=CC=CC=C3	447	435	471	467	465	465	461	460	442
C[C@@]1(C(=O)Nc2ccc(F)nc2)CCCN1c1nc(Nc2cc(C3CC3)[nH]n2)c2cccn2n1	369	417	392	374	380	393			
CN(C)C1=C(Br)C=C(C=C1)C\2NC3=C(\C4=C2C(=O)CC(C)(C)C4)C5=CC=CC=C5C=C3 (configuration not stated)				466	447	459	471	465	470
N=C1N[C@H]2[C@H](CS[C@H]2CCCCC(=O)O)N1	456	473	443	464	464	470			
CC(C)Cc1ccc(C(C)C(=O)O)cc1 (configuration not stated)				442	408	410	371	396	425
N#C/N=C(\NCCCCCCOc1ccc(Cl)cc1)Nc1ccncc1							48.4	34.6	38
CC(C)(O)c1cc2nc(-c3cnc(N)nc3)nc(N3CCOCC3)c2s1	343	402	334	406	361	363			
Cc1onc(-c2ccccc2)c1C(=O)N[C@@H]1C(=O)N2[C@@H]1SC(C)(C)[C@@H]2C(=O)[O-].[Na+]	379	407	401	440	414	394			
Cc1nc(Nc2n[nH]c3c2CN(C(=O)N[C@H](CN(C)C)c2ccccc2)C3(C)C)c2sccc2n1	262	277	266	317	258	266			
O.O.CCN1CCN(C(=O)N[C@H](C(=O)N[C@H]2[C@@H]3SC\C(=C(/N3C2=O)C(O)=O)CSC4=NN=N[N]4C)C5=CC=C(O)C=C5)C(=O)C1=O							422	425	413
Cc1ncc([N+](=O)[O-])n1CC(C)O (configuration not stated)	467	465	459	467	462	463			
